Laboratory results published in paper PMC10224329, “Design, Synthesis, and Antiproliferative Activity of Benzopyran-4-One-Isoxazole Hybrid Compounds” (Molecules, 2023).

Columns and labels:
[1] = system: human embryonic kidney (HEK-293) cell lines; assay: MTS cell viability assay, non-cancerous cells; assay type: cell-based; conditions: Homo sapiens
From the text: (§1) The compounds were further screened for their in vitro cytotoxicity against non-cancerous normal cell lines, viz., human embryonic kidney (HEK-293) and normal pig kidney (LLCPK) cell lines. These cell lines were selected to determine whether the compounds had selectivity against cancerous cells in contrast to non-cancerous cells. The data obtained is shown in Figure 3a–b (cf. Supplementary Materials for the data obtained for intermediates and starting materials Figure S28.7–S28.8, page no. 77–78).
(§2) Cell viability assays were performed using the MTS protocol. The in vitro cytotoxicity of the conjugates was evaluated using six human cancer cell lines, one human normal kidney cell line, and one mammalian normal kidney cell line, which included human leukemia carcinoma cell lines (CCRF-CEM), human ovarian adenocarcinoma cell lines (SKOV-3), human breast tumor cell lines (MDA-MB-231), human prostate cancer cell lines (PC-3), androgen-independent human prostate cancer cell lines (DU-145), human renal carcinoma (iSLK), human embryonic kidney cell lines (HEK-293), and normal mammalian kidney cell line (LLCPK) to determine the toxicity of the synthesized conjugates. CCRF-CEM cells were seeded at 50,000 cells in 0.1 mL per well in 96-well plates, and in the case of SKOV-3, MDA-MB-231, PC-3, DU-145, HEK-293, and LLCPK cell lines, the cells were seeded at 5000 cells in 0.1 mL per well in 96-well plates. The CCRF-CEM cells were seeded in RPMI-1640 media containing 2mM L-glutamine, 1.5 g/L sodium bicarbonate, supplemented with fetal bovine serum (FBS) 10% media, SKOV-3, MDA-MB-231, and LLCPK cells were seeded in MEME media with Earle’s salts and sodium bicarbonate, without L-glutamine, supplemented with fetal bovine serum (FBS) 10%, PC-3 cells were seeded in DMEM:F-12 containing 1:1 mixture with L-glutamine with HEPES, supplemented with fetal bovine serum (FBS) 10%, and DU-145 and HEK-293 cells were seeded in DMEM containing 4500 mg/L glucose, L-glutamine, and sodium bicarbonate, without sodium pyruvate, supplemented with FBS (10%), 24 h prior to the experiment. The compounds at a final concentration of 25 µM (higher concentration stock solution prepared in DMSO) were added to each well in triplicate and incubated for 24 and 72 h at 37 °C in a humidified atmosphere (95% air and 5% CO2). The cell viability was then determined by measuring the absorbance of the formazan product at 490 nm using a microplate reader using a SpectraMax M2 microplate spectrophotometer, Molecular Devices, San Jose, CA, USA. The percentage of cell survival was calculated as [(OD value of cells treated with the test mixture of compounds) − (OD value of culture medium)]/[(OD value of control cells) − (OD value of culture medium)] × 100%. IC50 values of compounds were calculated using non-linear regression analysis in GraphPad Prism (Boston, MA, USA).

[2] = system: normal pig kidney (LLCPK) cell lines; assay: MTS cell viability assay, non-cancerous cells; assay type: cell-based; conditions: Sus scrofa, conjugates at 25 μM, 72 h
From the text: as §1, §2

[3] = system: panel of cancer cell lines (CCRF-CEM, SKOV-3, MDA-MB-231, PC-3, DU-145, iSLK); assay: MTS cell viability assay, summary over the cancer cell line panel; assay type: cell-based; conditions: Homo sapiens
Method: All the 14 hybrid compounds synthesized via Scheme 1, along with the intermediates and starting compounds, were tested in vitro for their cytotoxicity against a panel of 6 human cancer cell lines. This panel involved human leukemia carcinoma (CCRF-CEM), human ovarian adenocarcinoma (SKOV-3), human breast tumor (MDA-MB-231), human prostate cancer (PC-3), androgen-independent human prostate cancer (DU-145), and human renal carcinoma (iSLK) cell lines. The compounds were tested at a concentration of 25 μM for incubation periods of 24 and 72 h. Standard anticancer drug doxorubicin at a concentration of 5 μM and DMSO were used as controls in all the cell assays. The antiproliferative profile of benzopyran-4-one-isoxazole conjugates is shown in Figure 2 (cf. Supplementary Materials for the data obtained for intermediates and starting materials Figure S28.1–S28.6, page no. 71–76).
as §2

[4] = Proteolytic stability in human serum (HPLC); assay type: in vitro ADME; conditions: 37 °C
Method: These compounds were further explored towards degradation by proteolytic enzymes towards degradation. Compound 5a was investigated for proteolytic stability in the presence of human serum. It was incubated with human serum at 37 °C, and aliquots of the reaction mixture were analyzed via HPLC at different time points up to 2 h. The concentration of Compound 5a was measured by integrating the area under the curve (AUC) and correspondingly calculated from the standard curve of 5a at different concentrations (cf. Supplementary Materials, page no. 81–82).
The HPLC chromatogram of serum incubated with compound 5a for 80 min was illustrated in Figure 5. […]
HPLC analysis was carried out to evaluate the proteolytic stability of selected conjugate 5a in the presence of human serum. First, different concentrations of Compound 5a were analyzed using the analytical HPLC, and a standard curve was plotted for the different concentrations of Compound 5a versus the area under the curve. […] The initial time was recorded, and 100 μL aliquots of the reaction mixture were removed and added to methanol (200 μL) for precipitation of serum proteins in human serum. […] A linear gradient from 10% to 100% acetonitrile/water in 65 min with a flow rate of 1.0 mL/min was used, and the absorbance of the eluting peaks was detected at 254 nm. […]

- IC50 ([3]; range over CCRF-CEM, MDA-MB-231, PC3, DU-145, read-out: IC50 against all the cancer cell lines (range)): 5.6 to 17.8 µM
- degradation on incubation with human serum ([4]; after 2 h of incubation with human serum): completely degraded
- half-life at 50 µM ([4]; human, human serum (25% v/v in RPMI media), human serum): ~13.6 min
Structure (SMILES): Cc1noc(C)c1C(=O)OCc1coc2ccccc2c1=O [Compound 5a, (4-Oxo-4H-1-benzopyran-3-yl)methyl 3,5-dimethylisoxazole-4-carboxylate]
- IC50 ([1]; HEK293, normal HEK-293 cells, average of three independent tests in triplicate): 293 µM
- inhibition at 25 µM ([1]; HEK293, conjugates at 25 μM, 72 h): 37%
- inhibition at 25 µM [2]: 57%
- inhibition at 25 µM ([3]; 25 μM, 72 h, range over six cancer cell lines, read-out: percentage of inhibition (range over the cancer cell lines)): 44 to 81%
